The source of these data is PubChem BioAssay (NCI).

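Grown in 96-well plates, cells were treated for 48 hours with each compound at five concentrations. Insufficient inhibition: endpoint recorded as highest concentration tested. GI50 is the concentration that inhibits growth by half. TGI: total growth inhibition.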

What all share (assay): NCI tumour cell line growth inhibition, 48 h
Assay [1] concerns KM12 colon.
Assay [2] deals with UACC-62 melanoma.
Assay [3] concerns CCRF-CEM leukemia.
The test system of assay [4] is MDA-MB-435.
For assay [5], the system named is SF-268 CNS.
Assay [6] concerns OVCAR-3 ovarian.
In assay [7] the test system is MDA-MB-231 breast.
For assay [8], the system named is OVCAR-8 ovarian.
The test system of assay [9] is SN12C renal.
Assay [10] deals with RXF 393 renal.

Regarding `Cc1c(C)c2c(c(C)c1NC(=O)/C=C\C(=O)O)CCC(C)(CCCC(C)CCCC(C)CCCC(C)C)O2` (stereo not drawn), the GI50 was 1.67 µM in assay [1]; 1.8 µM in assay [2]; 1.79 µM in [3]; 1.67 µM in [4]; 1.67 µM in [5]; 1.61 µM in assay [6]. Also, the GI50 in assay [7] is 1.94 µM; in [8], 2.29 µM; in assay [9], 1.73 µM; in assay [10], 1.74 µM. Also, the TGI in assay [1] worked out at 3.17 µM; in [2], 3.22 µM; in [3], 6.11 µM; in [4], 3.44 µM; in assay [5], 3.08 µM; in [6], 2.97 µM. Also, the TGI stood at 3.55 µM in [7], 7.62 µM in [8], 3.3 µM in [9] and 3.23 µM in [10].
Consider `COc1cc(/C=N/Nc2ncnc3c2cnn3C(C)C)ccc1O`, for which the GI50 was 6.2 µM in assay [1]; 6.98 µM in assay [2]; 8.07 µM in assay [3]; 7.66 µM in assay [4]; 7.68 µM in assay [5]; 8.47 µM in assay [6]. The GI50 was 6.27 µM in assay [7], 6.37 µM in assay [8], 8.27 µM in assay [9] and 4.66 µM in assay [10]. Further, the TGI is 24.7 µM in assay [1]; above 20.9 µM in [2]; above 23.1 µM in assay [3]; above 25 µM in assay [4]; above 22.8 µM in [5]; above 25 µM in [6]. Also, the TGI in assay [7] is above 25 µM; in [8], above 25 µM; in [9], above 25 µM; in assay [10] it was 12.7 µM.
`O=C(COc1ccc(/C=C2\Oc3ccccc3C2=O)cc1)Nc1nccs1`: the GI50 is 8.08 µM in assay [1]; above 100 µM in assay [2]; 1.52 µM in assay [3]; 8.47 µM in [4]; 36.8 µM in [5]; 36.1 µM in assay [6]. The GI50 in [7] was 33.4 µM; in assay [8] it was above 100 µM; in assay [9] it was 76.9 µM; in [10] it was 0.354 µM. Moreover, the TGI was above 100 µM in assay [1]; above 100 µM in [2]; 3.27 µM in [3]; above 100 µM in [4]; above 100 µM in assay [5]; above 100 µM in assay [6]. The TGI in assay [7] was above 100 µM; in assay [8] it was above 100 µM; in [9], above 100 µM; in assay [10], 15.1 µM.
On to `COc1cccc(C(=O)Nc2ccc(CN3CCc4nc5cc(OC)c(OC)cc5cc43)cc2)c1`, for which the GI50 was 2.09 µM in [1]; 7.13 µM in [2]; 3.35 µM in [3]; 3.47 µM in assay [4]; 6.51 µM in [5]; 2.59 µM in assay [7]. Moreover, the GI50 was 3.88 µM in assay [8], 3.9 µM in assay [9] and 2.74 µM in [10]. Also, the TGI in assay [1] was 5.29 µM; in [2] it was 21.3 µM; in [3] it was 36.5 µM; in assay [4] it was 19.3 µM; in assay [5], above 100 µM; in assay [7] it was 11 µM. In addition, the TGI in assay [8] was above 100 µM; in [9], 16.4 µM; in assay [10] it was 15.3 µM.
In the case of `N#CC(C#N)=Cc1c(-c2ccccc2)[nH]c2ccccc12`, the GI50 in assay [1] is 0.66 µM; in assay [2], 2.24 µM; in [3] it was 2.41 µM; in [4] it was 0.248 µM; in [5] it was 8.81 µM; in assay [6], 1.66 µM. For the same compound, the GI50 is 1.42 µM in [7], 5.75 µM in [8], 5.82 µM in assay [9] and 3.33 µM in assay [10]. In addition, the TGI is 27.5 µM in assay [1]; above 46.5 µM in assay [2]; 43.8 µM in assay [3]; 0.736 µM in assay [4]; above 46.2 µM in assay [5]; 5.29 µM in [6]. For the same compound, the TGI was 30.3 µM in [7], above 90.2 µM in assay [8], above 73.3 µM in [9] and above 33.3 µM in [10].
Turning to `CC[C@@]1(OC(=O)CN)C(=O)OCc2c1cc1n(c2=O)Cc2cc3cc4c(cc3nc2-1)OCO4`, the GI50 is 0.0346 µM in assay [1]; below 0.01 µM in assay [2]; below 0.01 µM in [3]; below 0.0131 µM in assay [4]; below 0.01 µM in assay [5]; below 0.0239 µM in [6]. The GI50 in [7] was 0.787 µM; in assay [8], below 0.01 µM; in [9], below 0.01 µM; in [10] it was below 0.01 µM. Also, the TGI is 0.296 µM in assay [1]; 0.105 µM in [2]; 0.838 µM in assay [4]; 0.412 µM in assay [6]; above 23.7 µM in [7]; 0.13 µM in [8]. Moreover, the values for the TGI in [9] and in assay [10] were 0.563 µM and 0.192 µM, respectively.
`CC(=O)Nc1ccc(-c2c3nc(c(-c4cc5ccccc5[n+](C)c4)c4ccc([nH]4)c(-c4ccc(NC(C)=O)cc4)c4nc(c(-c5cc6ccccc6[n+](C)c5)c5ccc2[nH]5)C=C4)C=C3)cc1`: the GI50 in [1] is 15.1 µM; in assay [2], 23.9 µM; in assay [3] it was 0.721 µM; in [4], 7.19 µM; in assay [5], 35 µM; in assay [6], 2.37 µM. The GI50 in [7] was 8.1 µM; in [8] it was 15.7 µM; in [9] it was 7.09 µM; in [10], 2.05 µM. Moreover, the TGI in [1] is above 50 µM; in assay [2], above 50 µM; in assay [3] it was above 50 µM; in assay [4], 30.6 µM; in assay [5], above 50 µM; in assay [6], 12.9 µM. Also, the TGI in assay [7] is 29.7 µM; in [8] it was above 50 µM; in assay [9], 23.2 µM; in [10], 14.5 µM.
For `Cc1cc(=O)oc2c(CN3CCCCC3)c(O)ccc12`, the TGI in assay [2], in assay [3], in [4], in assay [5], in [6] and in assay [7] was above 100 µM throughout. In addition, the TGI in [8], in assay [9] and in assay [10] was above 100 µM each time.
As to `COc1cc(N2CCN(C(C)C)CC2)ccc1Nc1nc(Nc2cccc3ncccc23)c2cc[nH]c2n1`, the GI50 in assay [1] was 5.56 µM; in [2], 4.06 µM; in assay [3] it was 6.36 µM; in assay [4], 5.47 µM; in assay [5] it was 5.21 µM; in assay [6] it was 4.75 µM. Besides, the GI50 in assay [7] is 4.37 µM; in [8] it was 5.86 µM; in assay [9], 15.7 µM; in [10], 3.93 µM. Also, the TGI is above 25 µM in assay [1]; 8.53 µM in assay [2]; above 22.4 µM in assay [3]; above 25 µM in [4]; 15.4 µM in [5]; 10.6 µM in assay [6]. Further, the TGI in assay [7] was 11 µM; in assay [8], above 22.7 µM; in assay [9] it was above 25 µM; in assay [10], 9.38 µM.
For `CCCCN(CCCC)c1ccc(C(=N)c2ccc(N(C)C)cc2)cc1`, the GI50 in assay [1] is 0.516 µM; in [2], 0.449 µM; in assay [3], 0.544 µM; in assay [4], 0.348 µM; in assay [5] it was 1.3 µM; in assay [6] it was 0.448 µM. Further, the GI50 in [7] was 1.32 µM; in [8], 0.591 µM; in assay [9], 1.19 µM; in assay [10], 1.25 µM. The TGI in assay [1] was 1.75 µM; in assay [2] it was 1.77 µM; in [3], 3.24 µM; in assay [4] it was 1.33 µM; in assay [5], 2.73 µM; in assay [6], 1.6 µM. Moreover, the TGI stood at 2.88 µM in assay [7], 1.78 µM in [8], 2.77 µM in assay [9] and 2.61 µM in assay [10].
As for `Cc1onc(-c2c(F)cccc2Cl)c1-c1ncc(-c2ccc(Cl)cc2)o1`, the GI50 in assay [1] is 5.59 µM; in [2], 2.7 µM; in [3], 3.81 µM; in [4], 5.59 µM; in [5], 7.3 µM; in [6], 8.84 µM. The GI50 in assay [7] was 6.5 µM; in assay [8], 4.69 µM; in assay [9], 5.34 µM; in assay [10], 6.45 µM. Further, the TGI in assay [1], in assay [2], in [3], in assay [4], in [5] and in assay [6] was above 100 µM in each case. Further, the TGI in [7] was above 100 µM; in assay [8] it was above 100 µM; in [9], above 100 µM; in assay [10] it was 90.7 µM.
For `O=C(/C=C/C12c3ccccc3C(c3ccccc31)C1C(=O)N(c3ccccc3)C(=O)C12)c1ccc(Cl)cc1` (stereo not drawn), the GI50 in assay [1] is 2.18 µM; in assay [2], 1.66 µM; in assay [3], 0.566 µM; in assay [4], 1.93 µM; in assay [5], 4.56 µM; in assay [7], 1.64 µM. The GI50 was 1.43 µM in assay [8], 2.34 µM in assay [9] and 1.27 µM in assay [10]. Besides, the TGI in assay [1] is above 100 µM; in assay [2] it was 4.58 µM; in assay [3], above 100 µM; in [4], 5.39 µM; in assay [5], above 100 µM; in assay [7], 3.9 µM. The TGI in [8] is above 100 µM; in assay [9], above 100 µM; in assay [10], 2.87 µM.
On to `C=CCn1c(=O)c2cnc(Nc3ccc(N4CCN(C)CC4)cc3)nc2n1-c1ccc2c(n1)[C@@](O)(CC)CC2`, for which the GI50 in assay [1] was 0.391 µM; in [2], 0.504 µM; in assay [3] it was 0.2 µM; in assay [4], 0.226 µM; in [5], 2.07 µM; in assay [6] it was 0.333 µM. Besides, the GI50 was 0.558 µM in [7], 0.573 µM in [8], 0.507 µM in [9] and 0.131 µM in [10]. Besides, the TGI in assay [1] was 3.82 µM; in assay [2] it was 16.4 µM; in [3], 1.81 µM; in assay [4] it was 0.795 µM; in [5] it was above 63.5 µM; in assay [6], 2.86 µM. Also, the TGI in [7] was 4.19 µM; in [8] it was 5.62 µM; in assay [9] it was above 55.7 µM; in assay [10], 0.686 µM.
Consider `COc1ccc(C(C#N)NC23CC4CC(CC(C4)C2)C3)cc1OC` (stereo not drawn), for which the TGI in [1], in assay [2], in assay [3], in assay [4], in [5] and in assay [6] was above 100 µM each time. Further, the TGI in assay [7], in assay [8], in assay [9] and in [10] was above 100 µM each time.
On to `CC(C)(C)[Si](C)(C)OCC1CCC(n2cnc3c(=O)[nH]cnc32)O1` (stereo not drawn), for which the TGI in assay [1], in assay [2], in assay [3], in assay [4], in assay [5] and in assay [6] was above 100 µM each time. Moreover, the TGI in assay [7], in assay [8], in assay [9] and in assay [10] was above 100 µM each time.
As to `Cc1oc2nc[nH]c(=O)c2c1C(=O)/C=C/c1ccc(Cl)cc1`, the GI50 is 2.97 µM in [1]; 1.64 µM in assay [2]; 1.81 µM in assay [3]; 2.4 µM in assay [4]; 3.17 µM in assay [5]; 2.3 µM in [6]. Moreover, the GI50 in assay [7] is 2.64 µM; in assay [8], 2.67 µM; in assay [9] it was 2.79 µM; in [10], 1.97 µM. The TGI in assay [1] stood at 9.16 µM; in assay [2], 5.37 µM; in assay [3], 6.94 µM; in assay [4], 8.64 µM; in assay [5], 16.8 µM; in assay [6] it was 7.83 µM. Further, the TGI in assay [7] came to 14.6 µM; in [8] it was 31.9 µM; in assay [9] it was 14.2 µM; in assay [10], 4.98 µM.
